One may read the pIC50 as the negative decadic logarithm of the IC50, by convention in mol/L.

For one experiment, the target named is PRMT5-MTA (Homo sapiens, UniProt O14744). In words: Enzymatic inhibitory activity against PRMT5-MTA (AlphaScreen). It is filed as biochemical. The essentials:
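PRMT5/[…] (1 nM) was preincubated for 30 min at room temperature with 1 µM […] and 2.5 µM SAM, then exposed to compound (10-point, 3-fold from 1000 nM) for 15 min at 23 °C. Histone H4 substrate (5 nM) was added and reacted for 45 min at 23 °C. Symmetric dimethyl-R3 H4 was detected by AlphaScreen and IC50 calculated.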
On the technique in general: Bead proximity is the source of the signal in Alpha formats.

In another experiment the test system is HCT116 MTAP KO cells. Description: Inhibitory activity against cell proliferation (CellTiter Glo, 6 days), HCT116 MTAP KO. As to conditions: for pIC50: Homo sapiens, HCT-116, 144 h, HCT116 MTAP KO cells, 6 days, CellTiter Glo, read-out: HCT116 MTAP KO IC50; for Selectivity HCT 116-WT/ HCT116 MTAP KO: ratio of IC50 HCT116-WT / HCT116 MTAP KO. It is filed as cell-based. Put shortly:
(§1)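 Following overnight attachment of 250 cells per well in McCoy's 5A medium with 10% FBS, compounds spanning 8 concentrations (4-fold, top 10000 nM) were applied for 6 days. Growth inhibition IC50 was derived from luminescent ATP signal.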
(In ATP-based viability assays light output follows the ATP content of the culture.)

The next experiment deals with HCT116-WT cells. In words: Inhibitory activity against cell proliferation (CellTiter Glo, 6 days), HCT116-WT. It is filed as cell-based. As to conditions: 144 h, HCT116-WT cells, 6 days, CellTiter Glo; read-out: HCT116-WT IC50. Put shortly: as §1

Molecules are shown by their SMILES. pIC50: −log10 of the molar value. Read-outs that look alike come from different tables or passages of the source.

PRMT5-MTA, sequence (O14744 whole entry): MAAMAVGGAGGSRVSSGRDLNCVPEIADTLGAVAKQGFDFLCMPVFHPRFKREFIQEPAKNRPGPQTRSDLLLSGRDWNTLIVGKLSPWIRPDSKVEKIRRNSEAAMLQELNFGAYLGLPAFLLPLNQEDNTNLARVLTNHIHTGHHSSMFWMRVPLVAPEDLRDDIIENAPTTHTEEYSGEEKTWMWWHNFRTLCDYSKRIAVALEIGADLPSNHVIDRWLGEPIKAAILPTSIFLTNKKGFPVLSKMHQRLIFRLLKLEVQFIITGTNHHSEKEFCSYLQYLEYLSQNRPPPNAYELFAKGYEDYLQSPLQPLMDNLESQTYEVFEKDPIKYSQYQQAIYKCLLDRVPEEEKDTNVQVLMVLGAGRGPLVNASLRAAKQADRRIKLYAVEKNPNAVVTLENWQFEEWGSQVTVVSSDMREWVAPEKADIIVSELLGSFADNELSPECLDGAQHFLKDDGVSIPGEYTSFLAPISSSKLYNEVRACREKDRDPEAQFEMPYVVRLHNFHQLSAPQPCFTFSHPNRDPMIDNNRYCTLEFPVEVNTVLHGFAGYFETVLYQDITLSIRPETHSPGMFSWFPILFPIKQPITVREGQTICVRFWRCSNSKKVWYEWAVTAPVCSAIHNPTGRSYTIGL
PRMT5-MTA, sequence (Q9BQA1 whole entry partner): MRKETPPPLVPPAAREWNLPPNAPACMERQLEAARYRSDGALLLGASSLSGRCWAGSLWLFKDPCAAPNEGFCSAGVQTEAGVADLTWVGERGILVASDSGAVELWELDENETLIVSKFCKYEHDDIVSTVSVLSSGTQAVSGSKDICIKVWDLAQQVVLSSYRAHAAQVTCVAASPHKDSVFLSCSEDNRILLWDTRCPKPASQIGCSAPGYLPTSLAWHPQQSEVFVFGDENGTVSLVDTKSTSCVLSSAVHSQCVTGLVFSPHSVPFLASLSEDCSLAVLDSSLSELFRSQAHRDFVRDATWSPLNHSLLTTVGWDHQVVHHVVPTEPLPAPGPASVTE

As for `Cc1cc2cc(C(=O)N(Cc3ccc(-c4ccc(N5CCOCC5)nc4)cn3)N(C)c3ncccn3)ccc2nc1N` [Example 176, 2-amino-N',3-dimethyl-N-((6'-morpholinyl-[3,3'-bipyridine]-6-yl)methyl)-N'-(pyrimidin-2-yl)quinoline-6-carbohydrazide], the figures for the pIC50 at PRMT5-MTA (read-out: IC50), with HCT116 MTAP KO cells and with HCT116-WT cells were 8.70, 7.24 and 6.00, respectively. The “Selectivity HCT 116-WT/ HCT116 MTAP KO” value in the experiment on HCT116 MTAP KO cells came to 17.49.
In the same order, the values of `Cc1cc2nc(N)c3cnn(C)c3c2cc1C(=O)N1CCCN1c1ncc(-c2cccnc2)cc1F` [Example 473, (4-amino-1,7-dimethyl-1H-pyrazolo[4,3-c]quinolin-8-yl)(2-(5-fluoro-[3,3'-bipyridine]-6-yl)pyrazolidin-1-yl)methanone] are 8.05, 7.04, 5.29 and 56.09.
For `Cc1cc2nc(N)c3cnn(C)c3c2cc1C(=O)N1CC(C)CN1c1ncc(C#CCF)cc1F` (stereo not drawn) [Example 495, (4-amino-1,7-dimethyl-1H-pyrazolo[4,3-c]quinolin-8-yl)(2-(3-fluoro-5-(3-fluoroprop-1-yn-1-yl)pyridin-2-yl)-4-methylpyrazolidin-1-yl)methanone], the values for the negative logarithm of the IC50 (pIC50) on PRMT5-MTA (read-out: IC50), with HCT116 MTAP KO cells and in the experiment with HCT116-WT cells were 7.82, 7.16 and 5.78, respectively. Besides, the “Selectivity HCT 116-WT/ HCT116 MTAP KO” value in the experiment on HCT116 MTAP KO cells worked out at 24.00.
Take `CN(C(=O)c1cc2c(cc1F)nc(N)c1cnn(C)c12)N1CCc2nc(Br)ccc21` [Example 32, 4-amino-N-(5-bromo-2,3-dihydro-1H-pyrrolo[3,2-b]pyridin-1-yl)-7-fluoro-N,1-dimethy 1-1H-pyrazolo[4,3-c]quinoline-8-carboxamide]: the pIC50 is 8.60 at PRMT5-MTA, 6.91 with HCT116 MTAP KO cells and 5.44 with HCT116-WT cells. In the experiment with HCT116 MTAP KO cells, the “Selectivity HCT 116-WT/ HCT116 MTAP KO” value worked out at 29.85.
For the compound `[2H]C([2H])([2H])c1cc2cc(C(=O)N(Cc3ccc(C(F)(F)F)cn3)N(c3ncccn3)C3CC3)ccc2nc1N` [Example 314, 2-amino-N'-cyclopropyl-3-(methyl-D3)-N'-(pyrimidin-2-yl)-N-((5-(trifluoromethyl)pyridin-2-yl)methyl)quinoline-6-carbo hydrazide], the negative logarithm of the IC50 (pIC50) was 8.33 on PRMT5-MTA (read-out: IC50), 7.92 with HCT116 MTAP KO cells and 6.55 in the experiment on HCT116-WT cells. In the experiment on HCT116 MTAP KO cells, the “Selectivity HCT 116-WT/ HCT116 MTAP KO” value is given as 23.58.
With `Cc1cc2nc(N)c3cnn(C)c3c2cc1C(=O)N1C(C)CCN1c1ncc(Br)cc1F` (stereo not drawn) [Example 391, (4-amino-1,7-dimethyl-1H-pyrazolo[4,3-c]quinolin-8-yl)(2-(5-bromo-3-fluoropyridin-2-yl)-5-methylpyrazolidin-1-yl)metha none], the pIC50 on PRMT5-MTA (read-out: IC50) was 8.13; with HCT116 MTAP KO cells, 7.08; in the experiment on HCT116-WT cells, 5.55. Further, in the experiment with HCT116 MTAP KO cells, the “Selectivity HCT 116-WT/ HCT116 MTAP KO” value is reported as 33.94.
In the case of `Cc1cc2nc(N)c3cnn(C)c3c2cc1C(=O)N1CC(C)CN1c1cnccn1` (stereo not drawn) [Example 397, (4-amino-1,7-dimethyl-1H-pyrazolo[4,3-c]quinolin-8-yl)(4-methyl-2-(pyrazin-2-yl)pyrazolidin-1-yl)methanone], the pIC50 on PRMT5-MTA (read-out: IC50) was 7.82; in the experiment with HCT116 MTAP KO cells it was 6.71; with HCT116-WT cells it was 5.17. Also, the “Selectivity HCT 116-WT/ HCT116 MTAP KO” value with HCT116 MTAP KO cells is on record as 34.46.
With `Cn1ncc2c(N)nc3cc(Cl)c(C(=O)N4CC(F)(F)CN4c4ncc(F)cc4F)cc3c21` [Example 458, (4-amino-7-chloro-1-methyl-1H-pyrazolo [4,3-c]quinolin-8-yl)(2-(3,5-difluoropyridin-2-yl)-4,4-difluoropyrazolidin-1-yl)met hanone], the negative logarithm of the IC50 (pIC50) on PRMT5-MTA (read-out: IC50) is 8.29; with HCT116 MTAP KO cells it was 7.82; in the experiment with HCT116-WT cells, 6.43. The “Selectivity HCT 116-WT/ HCT116 MTAP KO” value with HCT116 MTAP KO cells worked out at 24.73.
In the case of `CN(c1ccccc1)N(Cc1ccc(C(F)(F)F)cn1)C(=O)c1ccc2nc(N)c3cnn(C)c3c2c1` [Example 52, 4-amino-N',1-dimethyl-N'-phenyl-N-((5-(trifluoromethyl)pyridin-2-yl)methyl)-1H-pyrazolo[4,3-c]quinoline-8-carbohydrazide], the values for the pIC50 at PRMT5-MTA (read-out: IC50), in the experiment with HCT116 MTAP KO cells and in the experiment with HCT116-WT cells were 8.43, 7.89 and 6.38, respectively. For the same compound, the “Selectivity HCT 116-WT/ HCT116 MTAP KO” value in the experiment with HCT116 MTAP KO cells came to 32.08.
Taken in the same sequence, the figures for `Cc1cc2cc(C(=O)N(Cc3ccc(-c4scnc4C(F)F)cn3)N(c3ncccn3)C3CC3)ccc2nc1N` [Example 239, 2-amino-N'-cyclopropyl-N-((5-(4-(difluoromethyl)thiazol-5-yl)pyridin-2-yl)methyl)-3-methyl-N'-(pyrimidin-2-yl)quinoline-6-carbohydrazide] were 8.14, 7.85, 6.58 and 18.64.
Turning to `Cc1cc2cc(C(=O)N(Cc3ccc(-c4ccc(N5CCCC5)nc4)cn3)N(C)c3ncccn3)ccc2nc1N` [Example 211, 2-amino-N',3-dimethyl-N'-(pyrimidin-2-yl)-N-((6'-(pyrrolidin-1-yl)-[3,3'-bipyridine]-6-yl)methyl)quinoline-6-carbohydrazide], the pIC50 at PRMT5-MTA (read-out: IC50) is 8.64; in the experiment on HCT116 MTAP KO cells, 7.08; in the experiment with HCT116-WT cells, 5.80. For the same compound, the “Selectivity HCT 116-WT/ HCT116 MTAP KO” value with HCT116 MTAP KO cells is 18.96.
On to `CC1CN(C(=O)c2cc3c(cc2Cl)nc(N)c2cnn(C)c23)N(c2ccccc2F)C1` (stereo not drawn) [Example 386, (4-amino-7-chloro-1-methyl-1H-pyrazolo [4,3-c]quinolin-8-yl)(2-(2-fluorophenyl)-4-methylpyrazolidin-1-yl)methanone], for which the pIC50 on PRMT5-MTA (read-out: IC50) was 8.21; with HCT116 MTAP KO cells, 7.89; with HCT116-WT cells, 6.47. Moreover, in the experiment on HCT116 MTAP KO cells, the “Selectivity HCT 116-WT/ HCT116 MTAP KO” value is on record as 25.85.
Taken in the same sequence, the figures for `Cc1cc2cc(C(=O)N(Cc3ccc(C4CC4)cn3)N(C)c3ncccc3C(F)(F)F)ccc2nc1N` [Example 196, 2-amino-N-((5-cyclopropylpyridin-2-yl)methyl)-N',3-dimethyl-N'-(3-(trifluoromethyl)pyridin-2-yl)quinoline-6-carbohydrazide] were 8.24, 7.47, 6.36 and 12.97.
Regarding `Cc1cnc(N(C)N(Cc2ccc(C(F)(F)F)cn2)C(=O)c2ccc3nc(N)c(C)cc3c2)nc1` [Example 276, 2-amino-N',3-dimethyl-N'-(5-methylpyrimidin-2-yl)-N-((5-(trifluoromethyl)pyridin-2-yl)methyl)quinoline-6-carbohydrazide], the pIC50 was 8.80 at PRMT5-MTA (read-out: IC50), 7.10 in the experiment on HCT116 MTAP KO cells and 5.70 with HCT116-WT cells. Besides, the “Selectivity HCT 116-WT/ HCT116 MTAP KO” value with HCT116 MTAP KO cells was 24.70.
Taken in the same sequence, the figures for `Cc1cc2cc(C(=O)N(Cc3ccc(-c4ccsc4)cn3)N(C)c3ncccn3)ccc2nc1N` [Example 201, 2-amino-N',3-dimethyl-N'-(pyrimidin-2-y 1)-N-((5-(thien-3-yl)pyridin-2-yl)methyl) quinoline-6-carbohydrazide] were 8.68, 7.29, 5.91 and 24.25.
On to `Cc1cc2nc(N)c3cnn(C)c3c2cc1C(=O)N1CCC(C)N1c1ncccn1` (stereo not drawn) [Example 374, (4-amino-1,7-dimethyl-1H-pyrazolo[4,3-c]quinolin-8-yl)(3-methyl-2-(pyrimidin-2-yl)pyrazolidin-1-yl)methanone], for which the pIC50 was 8.09 on PRMT5-MTA (read-out: IC50), 6.68 with HCT116 MTAP KO cells and under 5.00 in the experiment with HCT116-WT cells.

The record behind these values is EP4745134A1 (Jiangsu Yahong Meditech Co., Ltd., priority 2023, dated 2025).
